Target: SARS-CoV-2 S D614G (Severe acute respiratory syndrome coronavirus 2, UniProt P0DTC2, D614G)
Assay type: cell-based
Conditions: read-out: IC90, inhibition of S-mediated cell–cell fusion, SARS-CoV-2 D614G

| Substance | IC90 [µM] |
| --- | --- |
| Ac-SIDQINATFVDIEYEIKKLEEVAKKLEESYIDLKEL-NH2 [SK] | 0.096 ± 0.02 |
| Ac-DISQINASVVNIEYEIKKLEEVAKKLEESLIDLQEL-NH2 [QE] | 0.07 ± 0.01 |
| Ac-PDVDLGDISQINASVVNIEYEIKKLEEVAKKLEESLIDLQEL-NH2 [QE-EXT] | 0.09 ± 0.02 |
